In patent publication US10238631B2, “Sesquiterpene derivatives and their use in inflammation or cancer treatment” (Academia Sinica, priority 2014, dated 2019):
Read-outs that look alike come from different tables or passages of the source.

Assays:
[1] = system: TS/A (ER+, Her2−) murine mammary cancer cells; test: MTT cell viability assay, TS/A cells; type: cell-based; details: Mus musculus, 24 h, read-out: IC50 on cell viability, TS/A (ER+, Her2−)
Method: (§1) Normal or cancer cells (2×10^3 to 1×10^4 cells/well) were seeded in 96-well plate for overnight and treated with different compounds for 24 h to 72 h. Cells growth were determined by MTT-based colorimetric assays according to. Viability of the test cells treated with vehicle (0.5% DMSO) only was defined as 100% viable. Survival of cells after treatment with DETDs was calculated using the following formula: viable cell number (%)=OD570 (treated cell culture)/OD570 (vehicle control)×100.
(§2) Sixty DETDs were derived from parental compound […] and tested for anti-breast cancer cell activity.

[2] = system: MDA-MB-231 (ER−, PR−, Her2−) human breast cancer cells; test: MTT cell viability assay, MDA-MB-231 cells; type: cell-based; details: Homo sapiens, MDA-MB-231, 24 h, read-out: IC50 on cell viability, MDA-MB-231 (ER−, PR−, Her2−)
Method: as §1, §2

[3] = system: MCF-7 (ER+, Her2−) human breast cancer cells; test: MTT cell viability assay, MCF-7 cells; type: cell-based; details: MCF7, 24 h, read-out: IC50 on cell viability, MCF-7 (ER+, Her2−)
Method: as §1, §2

[4] = system: M10 normal mammary epithelial cells; test: MTT cell viability assay, M10 normal cells; type: cell-based, human; details: Homo sapiens, Epithelial cell, 24 h
Method: as §1, §2

B16-F10 (NRAS mutation) = test: MTT cell viability assay, B16-F10 melanoma; type: cell-based; details: Mus musculus, B16-F10, 24 h, read-out: IC50 on cell viability, B16-F10 (NRAS mutation)
Method: as §1
(§3) Several genes are involved in melanoma development and pathology; specifically, mutation in V-raf murine sarcoma viral oncogene homolog B1 (B-RAF) occurs approximately 50-60% and in neuroblastoma RAS viral oncogene homolog (N-RAS) occurs about 30% of malignant melanomas. A spectrum of wild-type or mutated melanoma cell lines including B16-F10, MeWo, A375, A2058, HTB-68, and melanocyte were used to study anti-melanoma cell proliferation activity of parental phytocompound DET and newly synthesized DETDs.

[5] = system: MeWo (No NRAS or BRAF mutation); test: MTT cell viability assay, MeWo melanoma; type: cell-based, human; details: Homo sapiens, MeWo, 24 h
Method: as §1, §3

HTB-68 (NRAS mutation) = test: MTT cell viability assay, HTB-68 melanoma; type: cell-based, human; details: Homo sapiens, 24 h
Method: as §1, §3

A2058 (BRAF mutation) = test: MTT cell viability assay, A2058 melanoma; type: cell-based, human; details: Homo sapiens, A2058, 24 h
Method: as §1, §3

A375 (BRAF mutation) = test: MTT cell viability assay, A375 melanoma; type: cell-based, human; details: Homo sapiens, A-375, 24 h, read-out: IC50 on cell viability, A375 (BRAF mutation)
Method: as §1, §3
To investigate whether or not DETD-35 show synergism with PLX4032 against A375 melanoma cells, we performed anti-proliferation assay using MTT reagent to obtain IC50 of each compound. […] The synergistic effect was quantified by combination index (CI) analysis as stated above.

[6] = system: Melanocyte (Normal cells); test: MTT cell viability assay, normal melanocytes; type: cell-based, human; details: Homo sapiens, Melanocyte, 24 h
Method: as §1, §3

[7] = system: RAW264.7 (normal macrophage); test: MTT cell viability assay, RAW264.7 macrophages; type: cell-based, mouse; details: Mus musculus, RAW264.7, 24 h
Method: as §1
(§4) Marcophages (2×10^5 cells/well in 96-well plate) were treated with compounds for 1 h, then incubated further for 24 h with or without the presence of […] LPS in the cultural medium. Nitrite levels in cell culture medium were determined by the Griess reaction method. In parallel to the Griess assays, macrophage cell viabilities were determined using the MTT based colorimetric assay.

[8] = system: LPS-induced nitric oxide (NO) production in RAW 264.7 cells; test: Nitric oxide production in LPS-stimulated macrophages (Griess); type: cell-based, mouse; details: Mus musculus; LPS-stimulated RAW264.7, nitrite 24 h after LPS
Method: as §4
LPS from the outer membrane of Gram-negative bacteria can induce mRNA or protein levels of inducible nitric oxide synthase (iNOS), which catalyzes oxidative deamination of L-arginine to produce nitric oxide (NO). Once NO is predominantly produced, it interacts with superoxide anion and generates highly reactive oxidants resulting in cellular inflammation, DNA, protein and tissue damages, carcinogenesis, and antiapoptosis. We used in vitro LPS stimulated inflammation in RAW264.7 cell system to evaluate the effect of DET and its derivatives DETDs on NO production by determination of nitrite level (equivalent to NO level) in culture medium 24 h after LPS treatment.

Structure (SMILES)	IC50 [1] [µM]	IC50 [2] [µM]	IC50 [3] [µM]	IC50 [4] [µM]	IC50 (B16-F10 (NRAS mutation); 24 h) [µM]	IC50 [5] [µM]	IC50 (HTB-68 (NRAS mutation)) [µM]	IC50 (A2058 (BRAF mutation)) [µM]	IC50 (A375 (BRAF mutation); 24 h, MTT) [µM]	IC50 [6] [µM]	IC50 [7] [µM]	IC50 [8] [µM]	IC50 (B16-F10 (NRAS mutation)) [µM]	IC50 (A375 (BRAF mutation)) [µM]
C=C(C)C(=O)O[C@H]1CC2=C[C@@H](C/C(C)=C/[C@H]3OC(=O)[C@@H](CN(C)C)[C@H]13)OC2=O [DETD-1]	6.2	> 7.5	> 7.5	> 7.5	> 10	> 10	> 10	> 10	> 10	> 10	> 10	5		
C=C1C(=O)OC2CC3=C[C@@H](C/C(C)=C/C(O)[C@H]12)OC3=O (some centres unmarked) [DETD-3]	7.5	> 7.5	> 7.5	> 7.5	> 10	> 10	> 10	> 10	> 10	> 10	> 10	> 10		
C=C(C)C(=O)OC1/C=C(\C)C[C@@H]2C=C(CC3OC(=O)C(=C)[C@@H]13)C(=O)O2 (some centres unmarked) [DETD-4]	1.8	6.2	3.4	> 7.5	4.5	> 10	> 10	> 10	> 10	> 10	> 10	2.2		
C=C1C(=O)OC2CC3=C[C@@H](C/C(C)=C/C(OC(=O)/C(C)=C/CC)[C@H]12)OC3=O (some centres unmarked) [DETD-5]	1.6	4.6	2.4	> 7.5	4.7	> 10	7.8	5.8	4.1	> 10	> 10	2.4		
C=C1C(=O)OC2CC3=C[C@@H](C/C(C)=C/C(OC(=O)/C=C/c4cc(OC)c(OC)c(OC)c4)[C@H]12)OC3=O (some centres unmarked) [DETD-7]	1.8	6.1	2.3	> 7.5	4.8	> 10	8.4	5.5	4.9	> 10	> 10	2.2		
C=C1C(=O)OC2CC3=C[C@@H](C/C(C)=C/C(OC(=O)C=C(C)C)[C@H]12)OC3=O (some centres unmarked) [DETD-8]	1.9	6.7	3.4	> 7.5	6.8	> 10	> 10	> 10	> 10	> 10	> 10	2.5		
C=C1C(=O)OC2CC3=C[C@@H](C/C(C)=C/C(OC(=O)C(Cl)Cl)[C@H]12)OC3=O (some centres unmarked) [DETD-9]	> 7.5	> 7.5	> 7.5	> 7.5	> 10	> 10	> 10	> 10	> 10	> 10	> 10	> 10		
C=C1C(=O)OC2CC3=C[C@@H](C/C(C)=C/C(OC(=O)CC(C)C)[C@H]12)OC3=O (some centres unmarked) [DETD-10]	2.7	5.9	3.4	> 7.5	6	> 10	> 10	> 10	> 10	> 10	> 10	1.8		
C=C1C(=O)OC2CC3=C[C@@H](C/C(C)=C/C(OC(=O)CC(C)(CC)OC(C)=O)[C@H]12)OC3=O (some centres unmarked) [DETD-11]	2.9	> 7.5	4.2	> 7.5		> 10	> 10	> 10		> 10	> 10	2.3	> 10	> 10
C=C1C(=O)OC2CC3=C[C@@H](C/C(C)=C/C(OC(=O)/C=C(\C)C(C)C)[C@H]12)OC3=O (some centres unmarked) [DETD-12]	3.3	7	4.2	> 7.5	7.2	> 10	> 10	> 10	> 10	> 10	> 10	3.2		
C=C1C(=O)OC2CC3=C[C@@H](C/C(C)=C/C(OC(=O)C(C)CC)[C@H]12)OC3=O (some centres unmarked) [DETD-13]	1.9	7.5	3.7	> 7.5	7.1	> 10	> 10	> 10	> 10	> 10	> 10	2		
C=C1C(=O)OC2CC3=C[C@@H](C/C(C)=C/C(OC(=O)C4CCCCC4)[C@H]12)OC3=O (some centres unmarked) [DETD-38]	2.6	5.2	4.6	> 7.5	3.9	> 10	9.5		5.1	> 10	> 10	1.7		
